Laboratory results: patent publication US10336739B2, “4-hydroxy-3-(heteroaryl)pyridine-2-one APJ agonists” (BRISTOL-MYERS SQUIBB COMPANY, priority 2015, dated 2019)

Target: human APJ receptor (Homo sapiens (Human), UniProt P35414)
Experiment: Intracellular cAMP accumulation assay (APJ hcAMP, HTRF)
Type: cell-based
Settings: HEK293 cells stably expressing human APJ receptor; inhibition of forskolin-mediated cAMP production; read-out: Human APJ cAMP EC50 Potency range
Procedure: Intracellular cAMP Accumulation Assay
HEK293 cells stably expressing human APJ receptor were used to assess the activity of compounds. Cultured cells were detached and resuspended in the cAMP Homogeneous Time-Resolved Fluorescence (HTRF) assay buffer (Cisbio cat; #62AM4PEJ). The assay was performed in 384-well assay plates (Perkin-Elmer; cat #6008289) according to assay protocol provided by the manufacturer. Serial dilutions of a compound together with assay buffer containing […] and 2 μM forskolin were added to each well containing 5,000 cells and incubated for 30 minutes at room temperature. Subsequently, cAMP D2 reagent was added in the lysis buffer followed by the EuK antibody (Cisbio; cat #62AM4PEJ) and incubated for 60 min. The fluorescence emission ratio was measured using fluorometer. The intracellular cAMP concentrations (compound-stimulated inhibition of forskolin-mediated cAMP production) were calculated by extrapolation from a standard curve using known cAMP concentrations. The EC50 values were obtained by fitting the data to a sigmoidal concentration-response curve with variable slope.

Chain of human APJ receptor (P35414 whole entry): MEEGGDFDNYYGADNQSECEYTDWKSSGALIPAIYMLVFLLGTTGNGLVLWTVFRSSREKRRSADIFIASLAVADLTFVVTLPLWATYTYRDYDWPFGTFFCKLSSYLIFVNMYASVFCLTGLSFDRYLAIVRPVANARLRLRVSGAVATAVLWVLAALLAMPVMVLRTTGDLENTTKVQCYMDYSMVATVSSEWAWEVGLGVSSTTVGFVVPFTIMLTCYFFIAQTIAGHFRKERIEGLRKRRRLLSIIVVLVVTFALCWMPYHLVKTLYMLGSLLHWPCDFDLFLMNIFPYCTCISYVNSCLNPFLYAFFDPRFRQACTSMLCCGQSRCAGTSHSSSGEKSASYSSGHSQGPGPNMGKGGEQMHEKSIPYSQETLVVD

SMILES	EC50 [nM]
CCCCc1nc(O)c(-c2nnc(Cc3ccc(Cl)cc3)o2)c(O)c1-c1c(OC)ccc(F)c1OC (single isomer, unassigned) [Example 218, 6-butyl-3-{5-[(4-chlorophenyl)methyl]-1,3,4-oxadiazol-2-yl}-5-(3-fluoro-2,6-dimethoxyphenyl)pyridine-2,4-diol]	10 to 100
CCCCc1nc(O)c(-c2nnc(Cc3ccc(Cl)cc3)o2)c(O)c1-c1c(OC)ccc(F)c1OC (single isomer, unassigned) [Example 219, 6-butyl-3-{5-[(4-chlorophenyl)methyl]-1,3,4-oxadiazol-2-yl}-5-(3-fluoro-2,6-dimethoxyphenyl)pyridine-2,4-diol]	0.01 to 10
CCOCc1nc(O)c(-c2nnc(Cc3ccc(Cl)cc3)o2)c(O)c1-c1c(O)cccc1OC (single isomer, unassigned) [Example 222, 3-{5-[(4-chlorophenyl)methyl]-1,3,4-oxadiazol-2-yl}-6-(ethoxymethyl)-5-(2-hydroxy-6-methoxyphenyl)pyridine-2,4-diol]	0.01 to 10
CCOCc1nc(O)c(-c2nnc(Cc3ccc(Cl)cc3)o2)c(O)c1-c1c(O)cccc1OC (single isomer, unassigned) [Example 223, 3-{5-[(4-chlorophenyl)methyl]-1,3,4-oxadiazol-2-yl}-6-(ethoxymethyl)-5-(2-hydroxy-6-methoxyphenyl)pyridine-2,4-diol]	10 to 100

Same assay, conditions: HEK293 cells stably expressing human APJ receptor; inhibition of forskolin-mediated cAMP production; read-out: hAPJ cAMP EC50 Potency range

SMILES	EC50 [nM]
CCCCc1nc(O)c(-c2nnc(Cc3noc4ccccc34)o2)c(O)c1-c1c(OC)ccc(F)c1OC (single isomer, unassigned; isomer 1) [Example 220, 3-[5-(1,2-benzoxazol-3-ylmethyl)-1,3,4-oxadiazol-2-yl]-6-butyl-5-(3-fluoro-2,6-dimethoxyphenyl) pyridine-2,4-diol (isomer 1)]	10 to 100
CCCCc1nc(O)c(-c2nnc(Cc3noc4ccccc34)o2)c(O)c1-c1c(OC)ccc(F)c1OC (single isomer, unassigned; isomer 2) [Example 221, 3-[5-(1,2-benzoxazol-3-ylmethyl)-1,3,4-oxadiazol-2-yl]-6-butyl-5-(3-fluoro-2,6-dimethoxyphenyl) pyridine-2,4-diol (isomer 2)]	0.01 to 10
CCCCc1nc(O)c(-c2nnc(Cc3ccccc3)o2)c(O)c1-c1c(OC)cc(C)cc1OC [Example 2, 3-(5-benzyl-1,3,4-oxadiazol-2-yl)-6-butyl-5-(2,6-dimethoxy-4-methylphenyl) pyridine-2,4-diol]	100 to 300
CCCCc1nc(O)c(-c2nnc(Cc3ccncc3)o2)c(O)c1-c1c(OC)cccc1OC [Example 3, 6-butyl-5-(2,6-dimethoxyphenyl)-3-[5-(pyridin-4-ylmethyl)-1,3,4-oxadiazol-2-yl]pyridine-2,4-diol]	10 to 100
CCCCc1nc(O)c(-c2nnc(CCc3ccccc3)o2)c(O)c1-c1c(OC)cccc1OC [Example 4, 6-butyl-5-(2,6-dimethoxyphenyl)-3-[5-(2-phenylethyl)-1,3,4-oxadiazol-2-yl]pyridine-2,4-diol]	10 to 100
CCCCc1nc(O)c(-c2nnc(Cc3ccccc3Cl)o2)c(O)c1-c1c(OC)cccc1OC [Example 5, 6-butyl-3-{5-[(2-chlorophenyl)methyl]-1,3,4-oxadiazol-2-yl}-5-(2,6-dimethoxyphenyl) pyridine-2,4-diol]	10 to 100
CCCCc1nc(O)c(-c2nnc(Cc3ccccc3OC)o2)c(O)c1-c1c(OC)cccc1OC [Example 6, 6-butyl-5-(2,6-dimethoxyphenyl)-3-{5-[(2-methoxyphenyl)methyl]-1,3,4-oxadiazol-2-yl}pyridine-2,4-diol]	10 to 100
CCCCc1nc(O)c(-c2nnc(Cc3cccc(OC)c3)o2)c(O)c1-c1c(OC)cccc1OC [Example 7, 6-butyl-5-(2,6-dimethoxyphenyl)-3-{5-[(3-methoxyphenyl)methyl]-1,3,4-oxadiazol-2-yl}pyridine-2,4-diol]	0.01 to 10
CCCCc1nc(O)c(-c2nnc(Cc3ccc(Cl)cc3)o2)c(O)c1-c1c(OC)cccc1OC [Example 8, 6-butyl-3-{5-[(4-chlorophenyl)methyl]-1,3,4-oxadiazol-2-yl}-5-(2,6-dimethoxyphenyl) pyridine-2,4-diol]	0.01 to 10
CCCCc1nc(O)c(-c2nnc(Cc3ccc(OC)cc3)o2)c(O)c1-c1c(OC)cccc1OC [Example 9, 6-butyl-5-(2,6-dimethoxyphenyl)-3-{5-[(4-methoxyphenyl)methyl]-1,3,4-oxadiazol-2-yl}pyridine-2,4-diol]	0.01 to 10
CCCCc1nc(O)c(-c2nnc(-c3cccc(Cl)c3)o2)c(O)c1-c1c(OC)cccc1OC [Example 10, 6-butyl-3-[5-(3-chlorophenyl)-1,3,4-oxadiazol-2-yl]-5-(2,6-dimethoxyphenyl) pyridine-2,4-diol]	10 to 100
CCCCc1nc(O)c(-c2nnc(-c3ccccc3Cl)o2)c(O)c1-c1c(OC)cccc1OC [Example 11, 6-butyl-3-[5-(2-chlorophenyl)-1,3,4-oxadiazol-2-yl]-5-(2,6-dimethoxyphenyl) pyridine-2,4-diol]	100 to 300
CCCCc1nc(O)c(-c2nnc(-c3cnccn3)o2)c(O)c1-c1c(OC)cccc1OC [Example 12, 6-butyl-5-(2,6-dimethoxyphenyl)-3-[5-(pyrazin-2-yl)-1,3,4-oxadiazol-2-yl]pyridine-2,4-diol]	100 to 300
CCCCc1nc(O)c(-c2nnc(C3(c4ccccc4)CC3)o2)c(O)c1-c1c(OC)cccc1OC [Example 13, 6-butyl-5-(2,6-dimethoxyphenyl)-3-[5-(1-phenylcyclopropyl)-1,3,4-oxadiazol-2-yl]pyridine-2,4-diol]	10 to 100
CCCCc1nc(O)c(-c2nnc(C3CC3)o2)c(O)c1-c1c(OC)cccc1OC [Example 14, 6-butyl-3-(5-cyclopropyl-1,3,4-oxadiazol-2-yl)-5-(2,6-dimethoxyphenyl) pyridine-2,4-diol]	100 to 300
CCCCc1nc(O)c(-c2nnc(C(C)(C)c3ccccc3)o2)c(O)c1-c1c(OC)cccc1OC [Example 15, 6-butyl-5-(2,6-dimethoxyphenyl)-3-[5-(2-phenylpropan-2-yl)-1,3,4-oxadiazol-2-yl]pyridine-2,4-diol]	0.01 to 10
CCCCc1nc(O)c(-c2nnc(COc3ccccc3)o2)c(O)c1-c1c(OC)cccc1OC [Example 17, 6-butyl-5-(2,6-dimethoxyphenyl)-3-[5-(phenoxymethyl)-1,3,4-oxadiazol-2-yl]pyridine-2,4-diol]	10 to 100
C=CCCc1nc(O)c(-c2nnc(Cc3ccccc3)o2)c(O)c1-c1c(OC)cccc1OC [Example 18, 3-(5-benzyl-1,3,4-oxadiazol-2-yl)-6-(but-3-en-1-yl)-5-(2,6-dimethoxyphenyl) pyridine-2,4-diol]	10 to 100
CCCCc1nc(O)c(-c2nnc(-c3cc(C)[nH]n3)o2)c(O)c1-c1c(OC)cccc1OC [Example 19, 6-butyl-5-(2,6-dimethoxyphenyl)-3-[5-(5-methyl-1H-pyrazol-3-yl)-1,3,4-oxadiazol-2-yl]pyridine-2,4-diol]	100 to 300
CCCCc1nc(O)c(-c2nnc(Cc3noc4ccccc34)o2)c(O)c1-c1c(OC)cccc1OC [Example 20, 3-[5-(1,2-benzoxazol-3-ylmethyl)-1,3,4-oxadiazol-2-yl]-6-butyl-5-(2,6-dimethoxyphenyl) pyridine-2,4-diol]	0.01 to 10
CCCCc1nc(O)c(-c2nnc(Cc3cnccn3)o2)c(O)c1-c1c(OC)cccc1OC [Example 21, 6-butyl-5-(2,6-dimethoxyphenyl)-3-[5-(pyrazin-2-ylmethyl)-1,3,4-oxadiazol-2-yl]pyridine-2,4-diol]	0.01 to 10
CCCCc1nc(O)c(-c2nnc(Cc3cncnc3)o2)c(O)c1-c1c(OC)cccc1OC [Example 22, 6-butyl-5-(2,6-dimethoxyphenyl)-3-[5-(pyrimidin-5-ylmethyl)-1,3,4-oxadiazol-2-yl]pyridine-2,4-diol]	10 to 100
CCCCc1nc(O)c(-c2nnc(Cc3cccc(Cl)c3)o2)c(O)c1-c1c(OC)cccc1OC [Example 23, 6-butyl-3-{5-[(3-chlorophenyl)methyl]-1,3,4-oxadiazol-2-yl}-5-(2,6-dimethoxyphenyl) pyridine-2,4-diol]	0.01 to 10
CCCCc1nc(O)c(-c2nnc(C(F)(F)c3ccccc3)o2)c(O)c1-c1c(OC)cccc1OC [Example 24, 6-butyl-3-{5-[difluoro(phenyl)methyl]-1,3,4-oxadiazol-2-yl}-5-(2,6-dimethoxyphenyl) pyridine-2,4-diol]	10 to 100
CCCCc1nc(O)c(-c2nnc(Cc3nc4ccccc4o3)o2)c(O)c1-c1c(OC)cccc1OC [Example 25, 3-[5-(1,3-benzoxazol-2-ylmethyl)-1,3,4-oxadiazol-2-yl]-6-butyl-5-(2,6-dimethoxyphenyl) pyridine-2,4-diol]	0.01 to 10
CCCCc1nc(O)c(-c2nnc(Cc3noc4ccccc34)o2)c(O)c1-c1c(OC)cc(C)cc1OC [Example 26, 3-[5-(1,2-benzoxazol-3-ylmethyl)-1,3,4-oxadiazol-2-yl]-6-butyl-5-(2,6-dimethoxy-4-methylphenyl) pyridine-2,4-diol]	0.01 to 10
C=CCCc1nc(O)c(-c2nnc(Cc3noc4ccccc34)o2)c(O)c1-c1c(OC)cccc1OC [Example 27, 3-[5-(1,2-benzoxazol-3-ylmethyl)-1,3,4-oxadiazol-2-yl]-6-(but-3-en-1-yl)-5-(2,6-dimethoxyphenyl) pyridine-2,4-diol]	0.01 to 10
